Values joined by “and” are separate entries in the source; they are usually repeats but may differ in a detail not shown here. Equal values may be shown once.
How the values were obtained:
[1] = biological target: T1, Monoamine Oxidase MAO-B (Homo sapiens, UniProt P27338); assay: Monoamine Oxidase MAO-B; type: biochemical; settings: for remaining activity at 10 µM: assay year 2015, read-out: % Control Response
T1 construct: host or cells: Insect Hi5 cells
T1 sequence (P27338 1-520): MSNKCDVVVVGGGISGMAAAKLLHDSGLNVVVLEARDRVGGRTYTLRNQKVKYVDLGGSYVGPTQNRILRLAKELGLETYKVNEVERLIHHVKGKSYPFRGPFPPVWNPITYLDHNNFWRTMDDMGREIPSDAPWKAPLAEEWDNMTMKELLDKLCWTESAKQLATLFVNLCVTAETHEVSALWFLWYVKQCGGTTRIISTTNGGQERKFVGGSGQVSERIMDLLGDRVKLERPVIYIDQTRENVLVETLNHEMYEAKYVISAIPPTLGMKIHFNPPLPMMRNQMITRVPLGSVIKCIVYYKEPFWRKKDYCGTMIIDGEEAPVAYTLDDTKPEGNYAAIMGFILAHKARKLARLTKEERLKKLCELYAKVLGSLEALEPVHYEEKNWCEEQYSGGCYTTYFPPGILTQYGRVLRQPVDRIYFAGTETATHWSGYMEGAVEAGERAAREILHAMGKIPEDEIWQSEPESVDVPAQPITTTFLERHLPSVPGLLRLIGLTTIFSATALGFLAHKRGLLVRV
Experimental: The in vitro pharmacological studies were conducted by Eurofins PanLab (Taiwan) using the parameters shown in Table 13 with respect to appropriate literature references.

[2] = biological target: MSK2(h) (substrate histone H3 full length) (Homo sapiens, UniProt O75676); assay: Epigenetic enzyme assay, Kinases; type: biochemical; settings: read-out: % Inhibition of Control Values
Sequence of MSK2(h) (substrate histone H3 full length) (O75676 whole entry): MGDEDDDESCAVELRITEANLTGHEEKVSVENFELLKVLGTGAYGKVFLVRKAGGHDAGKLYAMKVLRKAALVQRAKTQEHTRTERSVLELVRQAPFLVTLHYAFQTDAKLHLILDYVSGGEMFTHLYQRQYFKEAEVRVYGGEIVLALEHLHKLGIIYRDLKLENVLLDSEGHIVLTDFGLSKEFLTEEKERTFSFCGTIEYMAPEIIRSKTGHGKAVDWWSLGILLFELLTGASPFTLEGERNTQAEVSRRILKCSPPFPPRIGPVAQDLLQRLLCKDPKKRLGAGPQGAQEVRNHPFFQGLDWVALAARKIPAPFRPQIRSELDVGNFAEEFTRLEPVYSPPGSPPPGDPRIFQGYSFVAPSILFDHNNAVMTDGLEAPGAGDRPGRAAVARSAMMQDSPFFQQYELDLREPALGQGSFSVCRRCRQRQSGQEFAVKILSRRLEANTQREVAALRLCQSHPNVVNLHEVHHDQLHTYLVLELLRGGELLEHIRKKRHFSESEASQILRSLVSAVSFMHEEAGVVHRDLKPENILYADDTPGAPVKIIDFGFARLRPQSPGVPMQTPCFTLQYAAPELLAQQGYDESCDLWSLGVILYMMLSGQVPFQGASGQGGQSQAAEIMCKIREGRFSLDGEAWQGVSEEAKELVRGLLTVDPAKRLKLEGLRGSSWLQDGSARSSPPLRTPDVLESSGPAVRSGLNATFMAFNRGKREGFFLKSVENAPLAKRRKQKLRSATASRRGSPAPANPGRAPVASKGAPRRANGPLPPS

[3] = biological target: T2, Haspin (h) (substrate histone H3 full length) (Homo sapiens, UniProt Q8TF76); assay: Epigenetic enzyme assay, Kinases; type: biochemical; settings: read-out: % Inhibition of Control Values
T2 sequence (Q8TF76 1-798): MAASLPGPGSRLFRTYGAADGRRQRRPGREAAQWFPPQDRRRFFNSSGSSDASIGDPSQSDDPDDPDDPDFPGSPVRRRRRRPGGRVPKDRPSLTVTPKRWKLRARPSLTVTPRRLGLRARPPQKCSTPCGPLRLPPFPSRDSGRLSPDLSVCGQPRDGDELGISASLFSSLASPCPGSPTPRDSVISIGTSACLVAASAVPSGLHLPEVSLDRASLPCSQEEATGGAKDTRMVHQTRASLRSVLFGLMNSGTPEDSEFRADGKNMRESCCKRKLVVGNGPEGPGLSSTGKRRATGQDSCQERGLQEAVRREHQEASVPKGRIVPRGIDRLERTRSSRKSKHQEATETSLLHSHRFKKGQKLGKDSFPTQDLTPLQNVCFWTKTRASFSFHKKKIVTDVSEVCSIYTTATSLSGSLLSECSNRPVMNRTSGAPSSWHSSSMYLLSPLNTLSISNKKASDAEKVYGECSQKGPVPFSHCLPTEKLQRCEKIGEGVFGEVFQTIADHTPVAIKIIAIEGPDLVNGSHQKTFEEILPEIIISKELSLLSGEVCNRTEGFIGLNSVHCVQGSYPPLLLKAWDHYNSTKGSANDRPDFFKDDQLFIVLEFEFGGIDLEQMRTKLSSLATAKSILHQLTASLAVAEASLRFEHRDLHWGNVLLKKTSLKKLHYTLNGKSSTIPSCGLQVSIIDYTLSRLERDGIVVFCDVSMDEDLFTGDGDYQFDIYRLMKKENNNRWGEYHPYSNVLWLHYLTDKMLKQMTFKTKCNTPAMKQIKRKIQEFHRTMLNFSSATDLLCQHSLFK

[4] = biological target: T3, PHIP(2) (h) bromodomain (Homo sapiens, UniProt Q8WWQ0); assay: Epigenetic binding assay, Bromodomain; settings: 10 μM; for inhibition at 10 µM: read-out: % Inhibition of Control Specific Binding
T3 construct: Bromodomain

[5] = system: L3MBTL1 MBT domain; assay: Epigenetic binding assay, MBT domain; settings: 10 μM
[6] = biological target: T4, IKK alpha(h) (substrate histone H3 full length) (Homo sapiens, UniProt O15111); assay: Epigenetic enzyme assay, Kinases; type: biochemical; settings: read-out: % Inhibition of Control Values
T4 sequence (O15111 1-745): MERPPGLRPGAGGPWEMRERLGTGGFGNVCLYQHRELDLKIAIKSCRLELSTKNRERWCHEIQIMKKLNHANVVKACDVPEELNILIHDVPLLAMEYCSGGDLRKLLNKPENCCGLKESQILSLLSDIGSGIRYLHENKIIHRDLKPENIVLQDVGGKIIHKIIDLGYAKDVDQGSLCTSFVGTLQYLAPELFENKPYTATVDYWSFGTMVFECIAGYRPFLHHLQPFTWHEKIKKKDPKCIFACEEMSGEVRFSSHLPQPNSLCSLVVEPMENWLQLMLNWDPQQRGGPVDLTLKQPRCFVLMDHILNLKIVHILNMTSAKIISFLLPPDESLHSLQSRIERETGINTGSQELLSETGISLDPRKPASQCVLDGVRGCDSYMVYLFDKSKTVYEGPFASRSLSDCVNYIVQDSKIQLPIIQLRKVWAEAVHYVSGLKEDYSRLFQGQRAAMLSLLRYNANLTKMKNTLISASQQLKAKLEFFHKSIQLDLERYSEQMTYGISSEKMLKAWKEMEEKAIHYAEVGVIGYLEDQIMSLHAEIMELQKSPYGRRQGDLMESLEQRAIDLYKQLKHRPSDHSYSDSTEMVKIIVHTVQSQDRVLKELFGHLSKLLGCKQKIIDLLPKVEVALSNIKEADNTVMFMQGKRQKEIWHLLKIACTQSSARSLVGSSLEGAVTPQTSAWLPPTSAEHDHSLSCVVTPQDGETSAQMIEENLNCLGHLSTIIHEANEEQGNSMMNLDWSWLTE

[7] = biological target: T5, Monoamine Oxidase MAO-A (Homo sapiens, UniProt P21397); assay: Monoamine Oxidase MAO-A; type: biochemical; settings: for remaining activity at 10 µM: read-out: % Control Response
T5 construct: host or cells: Insect Hi5 cells
T5 sequence (P21397 1-527): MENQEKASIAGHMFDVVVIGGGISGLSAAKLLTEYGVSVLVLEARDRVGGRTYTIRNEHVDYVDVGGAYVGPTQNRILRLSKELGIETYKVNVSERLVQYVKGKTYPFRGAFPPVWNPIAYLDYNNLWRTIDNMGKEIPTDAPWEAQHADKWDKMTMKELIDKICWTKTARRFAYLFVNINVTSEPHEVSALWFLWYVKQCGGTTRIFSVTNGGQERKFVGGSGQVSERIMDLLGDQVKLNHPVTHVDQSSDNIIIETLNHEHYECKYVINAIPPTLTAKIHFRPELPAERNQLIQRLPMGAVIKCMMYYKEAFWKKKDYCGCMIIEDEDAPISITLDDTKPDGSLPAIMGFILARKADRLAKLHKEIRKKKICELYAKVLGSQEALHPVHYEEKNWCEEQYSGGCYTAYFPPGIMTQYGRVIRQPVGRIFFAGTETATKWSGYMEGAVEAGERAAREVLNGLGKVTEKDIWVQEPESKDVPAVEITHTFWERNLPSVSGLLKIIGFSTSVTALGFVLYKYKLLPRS

Which “% Control Response” value ([1]; 10 μM, assay year 2015) does the source give for `CC(C)=CCC[C@H](CO)[C@@H]1CC[C@@H](C)c2c1cc(C)c(O)c2O` [Compound 1, 7,8,18-trihydroxyserrulat-14-ene] here?
Its value is “potent inhibitor”.

And the remaining activity at 10 µM [1]?
Its remaining activity at 10 µM is 75%.

And the inhibition at 10 µM [2]?
Its inhibition at 10 µM is 9%.

What about the inhibition at 10 µM [3] of the same compound?
The inhibition at 10 µM was 2%.

And the “% Inhibition of Control Specific Binding” value [4]?
Its value is “significant inhibitory activity”.

What about the inhibition at 10 µM [4] of the same compound?
The inhibition at 10 µM was 61%.

What about the “% Inhibition of Control Specific Binding” value [5] of the same compound?
The value was 41%.

And the inhibition at 10 µM [6]?
Its inhibition at 10 µM is 26%.

What about the “% Control Response” value ([7]; 10 μM, assay year 2015) of the same compound?
The value was “potent inhibitor”.

What about the remaining activity at 10 µM ([7]; 10 μM, assay year 2015) of the same compound?
The remaining activity at 10 µM was 91%.

And the IC50 ([7]; concentration-response 10 to 0.01 μM)?
The IC50 was 6.47 µM and 6.74 µM.

How did the remaining activity at 10 µM [1] turn out when `CC(C)=CCC[C@@H]1C(O)Oc2c(C)cc(O)c3c2[C@H]1CC[C@H]3C` (stereo partly shown) [Compound 2, 5,18-epoxyserrulat-14-en-8,18-diol] was run?
Its remaining activity at 10 µM is 39%.

What about the inhibition at 10 µM [2] of the same compound?
Its inhibition at 10 µM is 12%.

And the inhibition at 10 µM [3]?
Its inhibition at 10 µM is 11%.

What about the inhibition at 10 µM [4] of the same compound?
Its inhibition at 10 µM is 30%.

And the “% Inhibition of Control Specific Binding” value [5]?
Its value is 61%.

What about the inhibition at 10 µM [6] of the same compound?
The inhibition at 10 µM was 28%.

And the remaining activity at 10 µM ([7]; 10 μM, assay year 2015)?
The remaining activity at 10 µM was 34%.

With `CC(C)=CCC[C@@H]1COc2c(C)cc(O)c3c2[C@H]1CC[C@H]3C` [Compound 3, 5,18-epoxy-8-hydroxyserrulat-14-ene] as the compound, how does the remaining activity at 10 µM [1] read?
The remaining activity at 10 µM was 18%.

And the inhibition at 10 µM [2]?
Its inhibition at 10 µM is -1%.

And the inhibition at 10 µM [3]?
Its inhibition at 10 µM is 7%.

What about the inhibition at 10 µM [4] of the same compound?
Its inhibition at 10 µM is 23%.

What about the “% Inhibition of Control Specific Binding” value [5] of the same compound?
Its value is 59%.

What about the inhibition at 10 µM [6] of the same compound?
The inhibition at 10 µM was 14%.

What about the remaining activity at 10 µM ([7]; 10 μM, assay year 2015) of the same compound?
Its remaining activity at 10 µM is 27%.

From patent publication US11331299B2, “Medicinal use of serrulatane diterpenes” (The University of Sydney, priority 2016, dated 2022)
